Assay results reported in patent US20250034264A1, “REGULATING T CELL IMMUNE RESPONSE THROUGH IGF-I RECEPTOR (IGF-1R)” (The Regents of the University of Michigan, priority 2021, published 2025).

Columns and labels:
[1] = test system: fibrocyte-adherent CD4+ T cells; test: IL-17A and INFγ in fibrocyte-adherent CD4+ T cells (flow cytometry); type: cell-based, human
Protocol: Invariably, a small population of tightly adherent T cells were found in the fibrocyte cultures, consistent with the previous findings. Culture viability was routinely verified to be >90%. CD4^+ T cells were enriched using the CD4 isolation cocktail (Cat #0.130-096-533, Miltenyi Biotec, San Diego, CA) followed by negative selection using a magnetic column (Cat #0.130-042-401) according to manufacturer's protocol. Fibrocytes and isolated T cells were cultured and remained untreated or were incubated with human IgG isotype control (5 μg/ml) or teprotumumab (50 μg/mL) for 7 to 9 days. Single cell suspensions were stained with anti-human CD4, CD3, CD34, MHC-2, CD80, CD86, and PD-L1 (BD Biosciences) for 30 min, rinsed and fixed with CytoPerm/CytoFix (BD). They were then stained with anti-human INFγ and IL-17A for 20 min, rinsed, and subjected to the flow cytometry analysis. Gated CD34^+CXCR4^+ fibrocytes and CD4^+CD3^+ T cells were analyzed using quadrant settings based on negative isotype staining.
In vitro studies of CD34^+ fibrocytes and T cells PBMC and GD-OF monolayers were treated in vitro with human IgG isotype control (5 μg/ml), teprotumumab (50 μg/mL), H7 (5 μg/mL), linsitinib (1 μM), bTSH (5 mIU/mL), M22 (1 μg/mL), or IGF-1 (10 nM) for the intervals indicted in the figure legends in a 37° C., 5% CO2, humidified incubator until confluent. Brefeldin A (0.66 μl/ml), (Golgi Stop™, BD Biosciences), phorbol 12-myristate 13-acetate (PMA) (50 ng/ml) and ionomycin (1 μg/mL) were added for 5 h. Cells were rinsed with flow cytometry buffer (1×PBS, 0.5% BSA, 0.1% sodium azide) and stained with the relevant monoclonal antibodies.

[2] = test system: fibrocytes; test: AIRE and thyroid autoantigen (Tg, TPO, NIS) mRNA expression; type: cell-based, human; details: 50 μg/mL 7-9 days; bTSH 5 mIU/mL 6 h; vs isotype control mAb
Protocol: FIGS. 9A-9D are graphs showing the effect of teprotumumab on bovine thyrotropin or thyroid-stimulating hormone (bTSH) induced thyroid specific genes thyroglobulin (Tg), sodium iodide symporter (NIS), thyroperoxidase (TPO), and autoimmune regulator protein (AIRE) in fibrocytes. Confluent fibrocyte cultures were treated with or without teprotumumab (50 μg/ml) and human Isotype IgG for 7-9 d, followed by bTSH (5 mIU/mL) for 6 h. Monolayers were washed with PBS and RNA was extracted and reverse transcribed. Harvested cDNA was subjected to quantitative real-time PCR for AIRE (FIG. 9A), Tg (FIG. 9B), TPO (FIG. 9C), and NIS (FIG. 9D) mRNA levels. Values were normalized to their respective GAPDH levels and are expressed as the mean f SD of three independent determinations. Experiments were repeated three times. *, P<0.05; **, p<0.01.
Real-time PCR Confluent fibrocyte and GD-OF cultures were incubated with bTSH (5 mIU/mL), teprotumumab (50 μg/mL) or linsitinib (1 μM) for the time intervals indicated, washed with PBS and RNA was extracted with the Aurum Total RNA Mini Kit (cat. #732-6820, Bio-Rad, Hercules, CA). Cellular RNA (2 μg) was reverse transcribed using QuantiTect Reverse Transcription kit (cat. #205314, Qiagen (Germantown, MD) and real-time PCR was performed using an Applied Biosystems instrument with QuantiTect SYBR Green PCR kit (cat. no. 204143; Qiagen, Frederick, MD). Primer sequences were as follows.

[3] = test system: circulating CD34+CXCR4+ fibrocytes; test: Phase 2 TAO trial: MHC II and B7 proteins in circulating fibrocytes (flow cytometry); type: in vivo, human; details: TAO patients, 20 mg/Kg, 24-week treatment
Protocol: Studies of circulating CD34^+ fibrocytes and T cells PBMCs from patients with active, moderate to severe TAO enrolled in a phase 2 trial for teprotumumab were cryopreserved immediately after collection. Venous blood sampling occurred at baseline and at week 24, following 8 infusions at 3 weekly intervals. The post-treatment sample was obtained 3 weeks after the final infusion of active drug or placebo. Samples were thawed and incubated with 10% knockout serum replacement medium for 1h and stained. Rinsed samples were subjected to FACS analysis with a Calibur flow cytometer (BD). Viable cells were gated on the basis of forward light scatter. All samples were analyzed using quadrant settings based on negative staining with isotype control antibodies. Mean fluorescent intensity (MFI) was calculated as the ratio of mean sample to isotype control fluorescence. Data were analyzed with FCS Express software (De Novo Software, Ontario, CA).

teprotumumab
INFγ MFI ([1]; 50 μg/mL, 9 d, control MFI 64.01±10.15): 26.80±5.61
IL-17A MFI ([1]; 50 μg/mL, 9 d, control isotype MFI 76.03±14.17): 65.17±5.61
abundance of adherent CD3+CD4+ T cells ([1]; cultures from both donor cohorts): substantially reduced
AIRE basal expression and induction by bTSH [2]: inhibited
NIS basal expression and induction by bTSH [2]: inhibited
TPO basal expression and induction by bTSH [2]: inhibited
Tg basal expression and induction by bTSH [2]: inhibited
reduction of CD80 expression level compared to baseline [3]: 54%
reduction of CD86 expression level compared to baseline [3]: 47%
reduction of MHC-II expression level compared to baseline [3]: 40%
reduction of PD-L1 expression level compared to baseline [3]: 47%
